Reference: paper PMC6541264, “Molecular mechanisms involved in drug-induced liver injury caused by urate-lowering Chinese herbs: A network pharmacology study and biology experiments” (PLoS ONE, 2019)

Tests used:
Format in all cases: cell-based, human
[1] = test system: L-02 cells; assay: MTT assay, cell viability of L-02 cells
Procedure: (§1) The normal hepatic cell (L02) cell lines were obtained from the National Infrastructure of Cell Line Resources (Chinese Academy of Medical Sciences, Beijing, China), and maintained in Dulbecco’s modified Eagle’s medium (DMEM, 10-013-CVR) supplemented with 10% fetal bovine serum (FBS, Hyclone), 1% penicillin and streptomycin (PS, 100 IU/ml penicillin, 100 μg/ml streptomycin, Mediatech, 30-002-CI). All cells were incubated in a humidified atmosphere at 37°C with 5% CO2.
(§2) L-02 cells were trypsinized by 0.25% trypsin after reaching the confluence of 70–80% and plated in 96-well plates at the density of 1.6 × 10^3 […]. And L-02 cells were cultured for 24 hours in vitro before exposure to varying concentrations of different representative compounds with liver injury for further incubating in another 24 hours. Then, 20 μl of 0.25 mg/ml3-(4,5-dimethylthiazol-2-yl)-2,5-diphenyltetrazolium bromide (MTT)-tetrazolium salts (Sigma-Aldrich Corp., St. Louis, MO, USA) in PBS was added to each hole in 96-well plates. After 4 hours of incubation, the formazan crystals were dissolved by 150μl Dimethyl Sulphoxide (DMSO), and shocked to dissolve thoroughly, then the cell viability was measured by MTT method at 570 nm. All experiments were repeated in triplicate independently.

[2] = MTT assay, cell viability of L-02 cells; settings: human, L-02 (L02) normal hepatic cells, L-02, MTT, 24 h, read-out: cells viabilityrate
Procedure: as §1, §2

[3] = test system: L-02 cells; assay: Biochemical indicators of hepatotoxicity (ALT, AST, LDH, ALP activity) of L-02 cells, without and with p38 inhibitor SB203580
Procedure: as §1
To determine how potential liver injury-compounds affected biochemical indicators of L-02 cells, we investigated the activities of AST, ALT, LDH and ALP in cell migration capacity under the different representative compounds conditions (representative compounds group), the inhibitor conditions (inhibitor group), and the negative control. For these experiments, three replicates were made for each concentration of the different representative compounds with liver injury, and each group was established three holes and cultured in 6 times repeatedly. […] Subsequently, the supernatant extraction of L02 cells was collected and centrifuged to detect the activities of AST, ALT, LDH, and ALP by chromatometry method.
To further and fully elucidating the mechanism of the liver injury caused by the representative compounds from urate-lowering Chinese herbs, we chose the p38α inhibitor, SB203580 to verify our findings. […] The specific composition information was shown in S2 Table. […] The Specific specific composition information is was shown in S4 Table.

[4] = test system: p38α; assay: Western blot, expression of p-p38α/p38α in L-02 cells, without and with inhibitor SB203580; settings: for ratios of p-p38α/p38α expression compared with the blank groups, in words: L-02, 10μmol/L diosgein, 2000μmol/L baicalin, 60μmol/L terandrine, 6μmol/L evodiamine
From the text: After the examination of biochemical indicators for hepatotoxicity in the cell, the expression of crucial liver injury protein in L02 cell lines among different groups was compared by Western blot analysis. Briefly, the proteins from different groups were harvested and lysed using lysis buffer (Sigma-Aldrich) containing a proteinase inhibitor cocktail (Sigma-Aldrich), the equal amounts of protein were separated by electrophoresis on a pre-cast 10% SDS-polyacrylamide gel (Bio-Rad, Hercules, CA) and transferred to polyvinylidene difluoride membranes (Millipore, Bedford, MA). Next, the membrane was blocked in TBST-T containing 5% skim milk for 2 h at room temperature and probed with anti-beta-catenin, and incubated overnight with the indicated primary antibody, followed by incubation with the secondary antibodies at room temperature for another 2 h. Finally, all the immune blots were visualized by enhanced chemiluminescence (Pierce Biotechnology, Inc., Rockford, IL, USA) and western blots were performed at least three times.
According to the results of network pharmacology, we examined the expression levels of p38α. […] The Specific specific composition information is was shown in S3 Table. […] However, the mechanism of saikosaponin D causing liver injury still remained unclear.
To further and fully elucidating the mechanism of the liver injury caused by the representative compounds from urate-lowering Chinese herbs, we chose the p38α inhibitor, SB203580 to verify our findings. Seemingly, the ALT, AST, ALP, and LDH activities of each group decreased to varying degrees under the influence of inhibitor. The specific composition information was shown in S2 Table. […] The Specific specific composition information is was shown in S4 Table.

[5] = S2 Table, L-02, 5μmol/L+inhibitor (SB203580)
[6] = S2 Table, L-02, 5μmol/L, no inhibitor
[7] = S2 Table, L-02, 10μmol/L+inhibitor (SB203580)
[8] = S2 Table, L-02, 10μmol/L, no inhibitor
[9] = Table 5, L-02 supernatant, 24 h, 5μmol/L
[10] = Table 5, L-02 supernatant, 24 h, 10μmol/L
[11] = Table 5, L-02 supernatant, 24 h, 15μmol/L
[12] = S2 Table, L-02, 1000μmol/L+inhibitor (SB203580)
[13] = S2 Table, L-02, 1000μmol/L, no inhibitor
[14] = S2 Table, L-02, 2000μmol/L+inhibitor (SB203580)
[15] = S2 Table, L-02, 2000μmol/L, no inhibitor
[16] = Table 5, L-02 supernatant, 24 h, 1000μmol/L
[17] = Table 5, L-02 supernatant, 24 h, 2000μmol/L

O=c1c2ccccc2nc2n1CCc1c-2[nH]c2ccccc12 [Rutaecarpine]
cell viability of L-02 (MTT), in words ([1]; dose of 5μmol/L): good potency inhibitor against the cell viability | viability at 24 h, 5 μmol/L ([2]; 5 μmol/L): 92.7 ± 3.74% | viability at 24 h, 10 μmol/L ([2]; 10 μmol/L): 81.3 ± 6.29% | viability at 24 h, 15 μmol/L ([2]; 15 μmol/L): 80.5 ± 3.9% | ALP [3, 5]: 1.13± 0.12 King's unit /100ml | ALT [3, 5]: 5.01± 0.13 U/L | AST [3, 5]: 9.25± 1.09 U/L | LDH [3, 5]: 1193.32± 3.90 U/L | ALP [3, 6]: 1.63± 0.03 King's unit /100ml | ALT [3, 6]: 6.00± 0.43 U/L | AST [3, 6]: 10.33± 0.74 U/L | LDH [3, 6]: 1105.81± 85.95 U/L | ALP [3, 7]: 1.39± 0.28 King's unit /100ml | ALT [3, 7]: 5.63± 0.09 U/L | AST [3, 7]: 10.52± 0.97 U/L | LDH [3, 7]: 1217.18± 41.25 U/L | ALP [3, 8]: 1.07± 0.14 King's unit /100ml | ALT [3, 8]: 5.67± 0.12 U/L | AST [3, 8]: 9.81± 0.74 U/L | LDH [3, 8]: 1155.13± 35.72 U/L | ALP [3, 9]: 5.77±0.54 King's unit /100ml | ALT [3, 9]: 9.90±0.99 U/L | AST [3, 9]: 1075.18±91.40 U/L | LDH [3, 9]: 1.62±0.04 U/L | ALP [3, 10]: 5.67±0.12 King's unit /100ml | ALT [3, 10]: 8.81±1.85 U/L | AST [3, 10]: 1127.68±56.72 U/L | LDH [3, 10]: 1.54±0.36 U/L | ALP [3, 11]: 5.54±0.57 King's unit /100ml | ALT [3, 11]: 9.33±1.85 U/L | AST [3, 11]: 1000.00±61.27 U/L | LDH [3, 11]: 1.71±0.16 U/L

O=C(O)[C@H]1O[C@@H](Oc2cc3oc(-c4ccccc4)cc(=O)c3c(O)c2O)[C@H](O)[C@@H](O)[C@@H]1O [Baicalin]
effect on L-02 (MTT), in words ([1]; dose of 2000μmol/L): trend of proliferative effects | viability at 24 h, 1000 μmol/L ([2]; 1000 μmol/L): 154 ± 21.1% | viability at 24 h, 2000 μmol/L ([2]; 2000 μmol/L): 98.6 ± 16.5% | ratios of p-p38α/p38α expression compared with the blank groups, in words [4]: increased | p-p38α/p38α ([4]; S3 Table, L-02, 24 hours of incubation, 1000μmol/L): 1.24±0.29 | p-p38α/p38α ([4]; S3 Table, L-02, 24 hours of incubation, 2000μmol/L): 2.06±0.66 | p-p38α/p38α ([4]; S4 Table, L-02, 24 hours, 1000μmol/L+inhibitor (SB203580)): 0.76±0.15 | p-p38α/p38α ([4]; S4 Table, L-02, 24 hours, 1000μmol/L, no inhibitor): 1.25±0.24 | p-p38α/p38α ([4]; S4 Table, L-02, 24 hours, 2000μmol/L+inhibitor (SB203580)): 0.26±0.03 | p-p38α/p38α ([4]; S4 Table, L-02, 24 hours, 2000μmol/L, no inhibitor): 1.08±0.6 | ALP [3, 12]: 0.70± 0.05 King's unit /100ml | ALT [3, 12]: 1.88± 0.20 U/L | AST [3, 12]: 4.12± 0.26 U/L | LDH [3, 12]: 778.83± 14.65 U/L | ALP [3, 13]: 0.86± 0.06 King's unit /100ml | ALT [3, 13]: 2.24± 0.30 U/L | AST [3, 13]: 4.45± 1.09 U/L | LDH [3, 13]: 699.84± 33.81 U/L | ALP [3, 14]: 0.85± 0.06 King's unit /100ml | ALT [3, 14]: 2.27± 0.32 U/L | AST [3, 14]: 4.38± 0.84 U/L | LDH [3, 14]: 981.04± 3.87 U/L | ALP [3, 15]: 0.92± 0.13 King's unit /100ml | ALT [3, 15]: 2.01± 0.20 U/L | AST [3, 15]: 4.48± 0.13 U/L | LDH [3, 15]: 840.44± 32.45 U/L | ALP [3, 16]: 2.03±0.44 King's unit /100ml | ALT [3, 16]: 4.45±1.09 U/L | AST [3, 16]: 690.76±33.24 U/L | LDH [3, 16]: 0.81±0.10 U/L | ALP [3, 17]: 1.94±0.21 King's unit /100ml | ALT [3, 17]: 4.48±0.13 U/L | AST [3, 17]: 824.64±39.22 U/L | LDH [3, 17]: 0.84±0.18 U/L

Evodiamine
ratios of p-p38α/p38α expression compared with the blank groups, in words [4]: increased | p-p38α/p38α ([4]; S3 Table, L-02, 24 hours of incubation, 5μmol/L): 1.13±0.33 | p-p38α/p38α ([4]; S3 Table, L-02, 24 hours of incubation, 6μmol/L): 1.39±0.34 | p-p38α/p38α ([4]; S3 Table, L-02, 24 hours of incubation, 7μmol/L): 1.03±0.48 | p-p38α/p38α ([4]; S4 Table, L-02, 24 hours, 5μmol/L+inhibitor (SB203580)): 0.82±0.02 | p-p38α/p38α ([4]; S4 Table, L-02, 24 hours, 5μmol/L, no inhibitor): 1.74±0.42 | p-p38α/p38α ([4]; S4 Table, L-02, 24 hours, 10μmol/L+inhibitor (SB203580)): 0.47±0.03 | p-p38α/p38α ([4]; S4 Table, L-02, 24 hours, 10μmol/L, no inhibitor): 1.45±0.29 | p-p38α/p38α ([4]; S4 Table, L-02, 24 hours, 15μmol/L+inhibitor (SB203580)): 0.91±0.22 | p-p38α/p38α ([4]; S4 Table, L-02, 24 hours, 15μmol/L, no inhibitor): 1.39±0.77
